Measurements from PubChem BioAssay AID1259407 (Chemical Carcinogenesis Research Information System (CCRIS), 2018).
Active and inactive are the calls of the source. How the calls were made is not given here.

Test system: CCRIS mutagenicity, Ames/micronucleus/aberration tests
Assay: CCRIS mutagenicity studies
[1] = Test System: AMES SALMONELLA TYPHIMURIUM, Strain/Indicator: TA1535, Metabolic Activation: NONE, Method: PREINCUBATION
[2] = Test System: AMES SALMONELLA TYPHIMURIUM, Strain/Indicator: TA1537, Metabolic Activation: NONE, Method: PREINCUBATION

SMILES: CCC[N+](=O)[O-]
- mutagenic call (Test System: AMES SALMONELLA TYPHIMURIUM, Strain/Indicator: TA98, Metabolic Activation: RAT LIVER S-9, PHENOBARBITAL AND BETA-NAPHTHOFLAVONE, Method: PREINCUBATION): inactive; negative
- mutagenic call (Test System: AMES SALMONELLA TYPHIMURIUM, Strain/Indicator: TA98, Metabolic Activation: RAT, LIVER, S-9, AROCLOR, Method: PREINCUBATION): inactive; negative
- mutagenic call (Test System: AMES SALMONELLA TYPHIMURIUM, Strain/Indicator: TA98, Metabolic Activation: RAT, LIVER, S-9, CLOPHEN A-50, Method: PREINCUBATION): inactive; negative
- mutagenic call (Test System: AMES SALMONELLA TYPHIMURIUM, Strain/Indicator: TA98, Metabolic Activation: RAT, LIVER, S-9, KANECHLOR 500, Method: PREINCUBATION): inactive; negative
- mutagenic call (Test System: AMES SALMONELLA TYPHIMURIUM, Strain/Indicator: TA100, Metabolic Activation: RAT LIVER S-9, PHENOBARBITAL AND BETA-NAPHTHOFLAVONE, Method: PREINCUBATION): inactive; negative
- mutagenic call (Test System: AMES SALMONELLA TYPHIMURIUM, Strain/Indicator: TA100, Metabolic Activation: RAT, LIVER, S-9, AROCLOR, Method: PREINCUBATION): inactive; negative
- mutagenic call (Test System: AMES SALMONELLA TYPHIMURIUM, Strain/Indicator: TA100, Metabolic Activation: RAT, LIVER, S-9, CLOPHEN A-50, Method: PREINCUBATION): inactive; negative
- mutagenic call (Test System: AMES SALMONELLA TYPHIMURIUM, Strain/Indicator: TA100, Metabolic Activation: RAT, LIVER, S-9, KANECHLOR 500, Method: PREINCUBATION): inactive; negative
- mutagenic call (Test System: AMES SALMONELLA TYPHIMURIUM, Strain/Indicator: TA102, Metabolic Activation: NONE, Method: PREINCUBATION): inactive; negative
- mutagenic call (Test System: AMES SALMONELLA TYPHIMURIUM, Strain/Indicator: TA102, Metabolic Activation: RAT LIVER S-9, PHENOBARBITAL AND BETA-NAPHTHOFLAVONE, Method: PREINCUBATION): inactive; negative
- mutagenic call (Test System: AMES SALMONELLA TYPHIMURIUM, Strain/Indicator: TA102, Metabolic Activation: RAT, LIVER, S-9, AROCLOR, Method: PREINCUBATION): inactive; negative
- mutagenic call (Test System: AMES SALMONELLA TYPHIMURIUM, Strain/Indicator: TA104, Metabolic Activation: NONE, Method: PREINCUBATION): inactive; negative
- mutagenic call (Test System: AMES SALMONELLA TYPHIMURIUM, Strain/Indicator: TA104, Metabolic Activation: RAT LIVER S-9, PHENOBARBITAL AND BETA-NAPHTHOFLAVONE, Method: PREINCUBATION): inactive; negative
- mutagenic call [1]: inactive; negative
- mutagenic call (Test System: AMES SALMONELLA TYPHIMURIUM, Strain/Indicator: TA1535, Metabolic Activation: RAT LIVER S-9, PHENOBARBITAL AND BETA-NAPHTHOFLAVONE, Method: PREINCUBATION): inactive; negative
- mutagenic call [2]: inactive; negative
- mutagenic call (Test System: AMES SALMONELLA TYPHIMURIUM, Strain/Indicator: TA1537, Metabolic Activation: RAT LIVER S-9, PHENOBARBITAL AND BETA-NAPHTHOFLAVONE, Method: PREINCUBATION): inactive; negative
- mutagenic call (Test System: CHINESE HAMSTER V-79, Strain/Indicator: V-79/6-THIOGUANINE, Metabolic Activation: NONE, Method: STANDARD PLATE): active; positive
- mutagenic call (Test System: E. COLI, Strain/Indicator: WP2 UVRA (PKM101), Metabolic Activation: NONE, Method: PREINCUBATION): inactive; negative
- mutagenic call (Test System: E.COLI, Strain/Indicator: WP2UVRA/PKM101, Metabolic Activation: NONE, Method: PREINCUBATION): inactive; negative
- mutagenic call (Test System: E.COLI, Strain/Indicator: WP2UVRA/PKM101, Metabolic Activation: RAT LIVER S-9, PHENOBARBITAL AND BETA-NAPHTHOFLAVONE, Method: PREINCUBATION): inactive; negative
- mutagenic call (Test System: E.COLI, Strain/Indicator: WP2UVRA, Metabolic Activation: NONE, Method: PREINCUBATION): inactive; negative
- mutagenic call (Test System: E.COLI, Strain/Indicator: WP2UVRA, Metabolic Activation: RAT LIVER S-9, PHENOBARBITAL AND BETA-NAPHTHOFLAVONE, Method: PREINCUBATION): inactive; negative
- mutagenic call (Test System: UDS RAT HEPATOCYTES, Strain/Indicator: THY INCORP, Metabolic Activation: NONE): inactive; negative
- mutagenic call (Test System: UDS RODENT HEPATOCYTES, Strain/Indicator: THY INCORP (NON-S-PHASE), Metabolic Activation: NONE, Method: PREINCUBATION): inactive; negative

SMILES: CC(O)CN (stereo not given)
- mutagenic call (Test System: AMES SALMONELLA TYPHIMURIUM, Strain/Indicator: TA98, Metabolic Activation: HAMSTER, LIVER, S-9, AROCLOR 1254 (10%), Method: PREINCUBATION): inactive; negative
- mutagenic call (Test System: AMES SALMONELLA TYPHIMURIUM, Strain/Indicator: TA98, Metabolic Activation: NONE, Method: PREINCUBATION): inactive; negative
- mutagenic call (Test System: AMES SALMONELLA TYPHIMURIUM, Strain/Indicator: TA98, Metabolic Activation: RAT, LIVER, S-9, AROCLOR 1254 (10%), Method: PREINCUBATION): inactive; negative
- mutagenic call (Test System: AMES SALMONELLA TYPHIMURIUM, Strain/Indicator: TA98, Metabolic Activation: RAT, LIVER, S-9, KC 500, Method: PREINCUBATION): inactive; negative
- mutagenic call (Test System: AMES SALMONELLA TYPHIMURIUM, Strain/Indicator: TA100, Metabolic Activation: HAMSTER, LIVER, S-9, AROCLOR 1254 (10%), Method: PREINCUBATION): inactive; negative
- mutagenic call (Test System: AMES SALMONELLA TYPHIMURIUM, Strain/Indicator: TA100, Metabolic Activation: NONE, Method: PREINCUBATION): inactive; negative
- mutagenic call (Test System: AMES SALMONELLA TYPHIMURIUM, Strain/Indicator: TA100, Metabolic Activation: RAT, LIVER, S-9, AROCLOR 1254 (10%), Method: PREINCUBATION): inactive; negative
- mutagenic call (Test System: AMES SALMONELLA TYPHIMURIUM, Strain/Indicator: TA100, Metabolic Activation: RAT, LIVER, S-9, KC 500, Method: PREINCUBATION): inactive; negative
- mutagenic call (Test System: AMES SALMONELLA TYPHIMURIUM, Strain/Indicator: TA1535, Metabolic Activation: HAMSTER, LIVER, S-9, AROCLOR 1254 (10%), Method: PREINCUBATION): active; positive
- mutagenic call [1]: inactive; negative
- mutagenic call (Test System: AMES SALMONELLA TYPHIMURIUM, Strain/Indicator: TA1535, Metabolic Activation: RAT, LIVER, S-9, AROCLOR 1254 (10%), Method: PREINCUBATION): active; positive
- mutagenic call (Test System: AMES SALMONELLA TYPHIMURIUM, Strain/Indicator: TA1535, Metabolic Activation: RAT, LIVER, S-9, KC 500, Method: PREINCUBATION): inactive; negative
- mutagenic call (Test System: AMES SALMONELLA TYPHIMURIUM, Strain/Indicator: TA1537, Metabolic Activation: HAMSTER, LIVER, S-9, AROCLOR 1254 (10%), Method: PREINCUBATION): inactive; negative
- mutagenic call [2]: inactive; negative
- mutagenic call (Test System: AMES SALMONELLA TYPHIMURIUM, Strain/Indicator: TA1537, Metabolic Activation: RAT, LIVER, S-9, AROCLOR 1254 (10%), Method: PREINCUBATION): inactive; negative
- mutagenic call (Test System: AMES SALMONELLA TYPHIMURIUM, Strain/Indicator: TA1537, Metabolic Activation: RAT, LIVER, S-9, KC 500, Method: PREINCUBATION): inactive; negative
- mutagenic call (Test System: AMES SALMONELLA TYPHIMURIUM, Strain/Indicator: TA1538, Metabolic Activation: NONE, Method: PREINCUBATION): inactive; negative
- mutagenic call (Test System: AMES SALMONELLA TYPHIMURIUM, Strain/Indicator: TA1538, Metabolic Activation: RAT, LIVER, S-9, KC 500, Method: PREINCUBATION): inactive; negative
- mutagenic call (Test System: Ames Salmonella typhimurium, Strain/Indicator: TA98, Metabolic Activation: None, Method: Preincubation): inactive; negative
- mutagenic call (Test System: Ames Salmonella typhimurium, Strain/Indicator: TA98, Metabolic Activation: Rat, Liver, S9, Sodium phenobarbital and 5,6-benzoflavone (10%), Method: Preincubation): inactive; negative
- mutagenic call (Test System: Ames Salmonella typhimurium, Strain/Indicator: TA100, Metabolic Activation: None, Method: Preincubation): inactive; negative
- mutagenic call (Test System: Ames Salmonella typhimurium, Strain/Indicator: TA100, Metabolic Activation: Rat, Liver, S9, Sodium phenobarbital and 5,6-benzoflavone (10%), Method: Preincubation): inactive; negative
- mutagenic call (Test System: Ames Salmonella typhimurium, Strain/Indicator: TA1535, Metabolic Activation: None, Method: Preincubation): inactive; negative
- mutagenic call (Test System: Ames Salmonella typhimurium, Strain/Indicator: TA1535, Metabolic Activation: Rat, Liver, S9, Sodium phenobarbital and 5,6-benzoflavone (10%), Method: Preincubation): inactive; negative
- mutagenic call (Test System: Ames Salmonella typhimurium, Strain/Indicator: TA1537, Metabolic Activation: None, Method: Preincubation): inactive; negative
- mutagenic call (Test System: Ames Salmonella typhimurium, Strain/Indicator: TA1537, Metabolic Activation: Rat, Liver, S9, Sodium phenobarbital and 5,6-benzoflavone (10%), Method: Preincubation): inactive; negative
- mutagenic call (Test System: E. COLI, Strain/Indicator: WP2 UVRA, Metabolic Activation: NONE, Method: PREINCUBATION): inactive; negative
- mutagenic call (Test System: E. COLI, Strain/Indicator: WP2 UVRA, Metabolic Activation: RAT, LIVER, S-9, KC 500, Method: PREINCUBATION): inactive; negative
- mutagenic call (Test System: E. coli, Strain/Indicator: WP2uvrA/pKM101, Metabolic Activation: None, Method: Preincubation): inactive; negative
- mutagenic call (Test System: E. coli, Strain/Indicator: WP2uvrA/pKM101, Metabolic Activation: Rat, Liver, S9, Sodium phenobarbital and 5,6-benzoflavone (10%), Method: Preincubation): inactive; negative
